# Data as given in ChEMBL document CHEMBL1201862, “PubChem BioAssay data set” (2004).
# The source made the active and inactive calls.
# Assays:
# [1] = biological target: T1, Probable nicotinate-nucleotide adenylyltransferase (Staphylococcus aureus (strain N315), UniProt P65502); assay type: functional, Staphylococcus aureus subsp. aureus N315;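 on IC50 Mean: confirmatory dose-response retesting of NadD inhibitor hits first found in an ultra-high-throughput screen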
# [2] = biological target: T1, Probable nicotinate-nucleotide adenylyltransferase; assay type: functional, Staphylococcus aureus subsp. aureus N315; conditions: read-out: IC50_Mean
# Aminopeptidase N = biological target: T2, Aminopeptidase N (Plasmodium falciparum FcB1/Columbia, UniProt O96935); test: P. falciparum M1AAP inhibitors, biochemical, fluorogenic H-Leu-NHMec substrate, 1536-well (AID 1445); parameters: species or system Plasmodium falciparum 3D7, 3D7
# T2 sequence (O96935 whole entry): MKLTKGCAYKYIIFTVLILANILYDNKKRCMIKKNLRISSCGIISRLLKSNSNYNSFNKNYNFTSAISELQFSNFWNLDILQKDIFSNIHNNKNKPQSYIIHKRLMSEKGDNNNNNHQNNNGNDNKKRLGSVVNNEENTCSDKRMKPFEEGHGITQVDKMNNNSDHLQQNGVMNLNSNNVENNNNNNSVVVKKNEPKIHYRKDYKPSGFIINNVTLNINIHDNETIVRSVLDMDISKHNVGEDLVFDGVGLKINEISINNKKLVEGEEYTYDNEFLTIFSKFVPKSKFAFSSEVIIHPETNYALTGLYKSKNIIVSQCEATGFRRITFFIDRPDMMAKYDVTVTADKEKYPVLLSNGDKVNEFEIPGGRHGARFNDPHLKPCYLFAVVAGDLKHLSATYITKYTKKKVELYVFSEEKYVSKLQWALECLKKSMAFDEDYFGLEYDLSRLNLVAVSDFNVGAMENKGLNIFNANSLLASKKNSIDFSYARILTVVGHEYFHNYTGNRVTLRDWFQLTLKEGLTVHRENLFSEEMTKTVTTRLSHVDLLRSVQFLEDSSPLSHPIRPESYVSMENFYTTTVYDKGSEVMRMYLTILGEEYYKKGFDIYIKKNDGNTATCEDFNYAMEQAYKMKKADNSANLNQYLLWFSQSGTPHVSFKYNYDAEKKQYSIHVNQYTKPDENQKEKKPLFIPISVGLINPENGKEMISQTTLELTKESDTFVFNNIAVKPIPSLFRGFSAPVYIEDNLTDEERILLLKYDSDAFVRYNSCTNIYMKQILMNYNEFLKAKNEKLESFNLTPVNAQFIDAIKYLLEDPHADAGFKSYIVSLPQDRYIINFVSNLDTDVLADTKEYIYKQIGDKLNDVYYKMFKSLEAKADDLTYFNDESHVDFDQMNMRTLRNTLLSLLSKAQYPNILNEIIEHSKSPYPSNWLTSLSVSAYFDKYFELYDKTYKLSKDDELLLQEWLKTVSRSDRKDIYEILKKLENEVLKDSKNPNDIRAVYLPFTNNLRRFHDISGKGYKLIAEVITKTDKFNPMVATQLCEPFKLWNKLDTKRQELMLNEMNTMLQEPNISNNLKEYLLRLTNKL
# [3] = biological target: T3, High affinity choline transporter 1 (Homo sapiens, UniProt Q9GZV3); test: CHT inhibitors, dose response, cell-based, 5-point CRC, membrane potential dye (AID 504840); assay type: functional
# T3 sequence (Q9GZV3 whole entry): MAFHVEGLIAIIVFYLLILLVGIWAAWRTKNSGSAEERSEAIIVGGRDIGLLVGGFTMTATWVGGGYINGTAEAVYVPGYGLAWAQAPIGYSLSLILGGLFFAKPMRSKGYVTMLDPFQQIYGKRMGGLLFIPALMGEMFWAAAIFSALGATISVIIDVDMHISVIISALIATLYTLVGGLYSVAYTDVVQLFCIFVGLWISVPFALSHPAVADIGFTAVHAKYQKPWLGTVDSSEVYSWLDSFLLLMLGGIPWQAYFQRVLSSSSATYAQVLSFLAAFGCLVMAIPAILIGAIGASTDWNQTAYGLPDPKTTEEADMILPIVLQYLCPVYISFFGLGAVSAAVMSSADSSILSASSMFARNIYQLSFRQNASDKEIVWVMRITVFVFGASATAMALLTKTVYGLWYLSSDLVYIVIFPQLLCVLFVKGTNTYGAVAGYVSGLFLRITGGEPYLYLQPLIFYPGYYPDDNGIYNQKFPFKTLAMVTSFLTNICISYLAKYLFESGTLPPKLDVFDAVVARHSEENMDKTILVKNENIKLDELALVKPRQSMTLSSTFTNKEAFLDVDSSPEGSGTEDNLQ
# Cytochrome P450 2C19 = Cytochrome P450 2C19 (Homo sapiens, UniProt P33261); test: Cytochrome panel assay with activity outcomes. Panel member name: p450-cyp2c19 Compounds with AC50 equal or less than 10 uM are considered active; assay type: functional
# Sequence of Cytochrome P450 2C19 (P33261 whole entry): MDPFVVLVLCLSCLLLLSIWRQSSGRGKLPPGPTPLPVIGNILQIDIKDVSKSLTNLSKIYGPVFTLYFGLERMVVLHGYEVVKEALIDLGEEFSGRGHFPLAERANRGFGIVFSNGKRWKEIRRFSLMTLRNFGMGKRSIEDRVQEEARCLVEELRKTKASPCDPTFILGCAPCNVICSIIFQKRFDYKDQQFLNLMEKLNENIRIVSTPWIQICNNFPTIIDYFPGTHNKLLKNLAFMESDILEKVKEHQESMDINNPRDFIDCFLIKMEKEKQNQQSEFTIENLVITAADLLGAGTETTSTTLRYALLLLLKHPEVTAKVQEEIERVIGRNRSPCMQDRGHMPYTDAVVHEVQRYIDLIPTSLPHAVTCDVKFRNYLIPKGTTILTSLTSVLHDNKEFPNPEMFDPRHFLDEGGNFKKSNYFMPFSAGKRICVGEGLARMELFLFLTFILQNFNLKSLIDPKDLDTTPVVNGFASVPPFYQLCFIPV
# Protein skinhead-1 = biological target: T4, Protein skinhead-1 (Caenorhabditis elegans, UniProt P34707); assay type: functional
# T4 sequence (P34707 whole entry): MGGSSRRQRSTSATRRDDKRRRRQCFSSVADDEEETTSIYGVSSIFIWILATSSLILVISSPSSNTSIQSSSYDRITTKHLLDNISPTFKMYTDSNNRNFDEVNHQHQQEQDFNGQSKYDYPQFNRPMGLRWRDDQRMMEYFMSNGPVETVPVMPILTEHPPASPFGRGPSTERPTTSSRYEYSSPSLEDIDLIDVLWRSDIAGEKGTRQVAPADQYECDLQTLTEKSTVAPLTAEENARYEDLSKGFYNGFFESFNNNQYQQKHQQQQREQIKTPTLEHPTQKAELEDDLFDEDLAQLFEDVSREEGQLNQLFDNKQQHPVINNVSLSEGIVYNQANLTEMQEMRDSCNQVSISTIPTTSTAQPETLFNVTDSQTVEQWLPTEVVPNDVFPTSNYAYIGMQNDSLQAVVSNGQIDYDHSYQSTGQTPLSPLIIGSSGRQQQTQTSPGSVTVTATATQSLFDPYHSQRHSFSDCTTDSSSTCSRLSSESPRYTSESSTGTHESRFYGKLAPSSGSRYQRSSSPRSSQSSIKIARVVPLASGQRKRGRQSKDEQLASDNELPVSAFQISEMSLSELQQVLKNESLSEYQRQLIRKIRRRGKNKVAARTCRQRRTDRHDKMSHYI
# [4] = HepG2 cell cytotoxicity, dose response, cytotoxicity control for Shn3 inhibitor project, CellTiter-Glo, cherry-picked (AID 624134); assay type: functional, cell-based
# [5] = inhibitors of firefly luciferase expression or activity, dose response, H4 neuroglioma cells, luminescence (AID 1990); assay type: functional, cell-based
# [6] = Luminescence Cell-Based Dose Response HTS to Identify Inhibitors of 5'UTR Stem-Loop Driven Prion Protein mRNA Translation in H4 Neuroglioblastoma Cells. [Related pubchem assays: 1827 (Project Summary), 1813 (Primary HTS)]; assay type: functional
# [7] = biological target: T5, Heat shock factor protein 1 (Mus musculus, UniProt P38532); test: inhibition of MG132-induced HSE-luciferase signal, confirmation, cell-based, NIH3T3, luminescence, dose retest (AID 2382); assay type: functional;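 further: NIH3T3 fibroblasts with HSF1-driven luciferase reporter stressed by proteasome inhibitor MG132; luminescence from HSF1-driven luciferase expression after 8 hours of MG132 stress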
# T5 sequence (P38532 whole entry): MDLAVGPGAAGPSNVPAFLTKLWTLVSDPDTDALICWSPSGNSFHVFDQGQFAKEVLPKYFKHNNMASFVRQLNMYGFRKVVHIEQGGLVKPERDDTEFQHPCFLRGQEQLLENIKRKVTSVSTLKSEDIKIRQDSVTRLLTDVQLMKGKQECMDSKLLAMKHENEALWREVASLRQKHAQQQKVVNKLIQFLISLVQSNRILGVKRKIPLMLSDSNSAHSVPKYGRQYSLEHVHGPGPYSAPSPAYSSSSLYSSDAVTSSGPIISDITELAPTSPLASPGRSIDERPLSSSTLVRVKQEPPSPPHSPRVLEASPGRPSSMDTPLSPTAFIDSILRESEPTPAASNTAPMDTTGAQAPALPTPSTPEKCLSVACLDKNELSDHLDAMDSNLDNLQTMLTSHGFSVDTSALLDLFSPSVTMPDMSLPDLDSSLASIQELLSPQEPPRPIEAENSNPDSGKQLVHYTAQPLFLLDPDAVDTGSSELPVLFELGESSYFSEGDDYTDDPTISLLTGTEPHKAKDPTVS
# [8] = biological target: Luciferin 4-monooxygenase (Photinus pyralis, UniProt P08659); test: firefly luciferase enzyme inhibitors, dose response, biochemical, luminescence (AID 1891)
# Sequence of Luciferin 4-monooxygenase (P08659 whole entry): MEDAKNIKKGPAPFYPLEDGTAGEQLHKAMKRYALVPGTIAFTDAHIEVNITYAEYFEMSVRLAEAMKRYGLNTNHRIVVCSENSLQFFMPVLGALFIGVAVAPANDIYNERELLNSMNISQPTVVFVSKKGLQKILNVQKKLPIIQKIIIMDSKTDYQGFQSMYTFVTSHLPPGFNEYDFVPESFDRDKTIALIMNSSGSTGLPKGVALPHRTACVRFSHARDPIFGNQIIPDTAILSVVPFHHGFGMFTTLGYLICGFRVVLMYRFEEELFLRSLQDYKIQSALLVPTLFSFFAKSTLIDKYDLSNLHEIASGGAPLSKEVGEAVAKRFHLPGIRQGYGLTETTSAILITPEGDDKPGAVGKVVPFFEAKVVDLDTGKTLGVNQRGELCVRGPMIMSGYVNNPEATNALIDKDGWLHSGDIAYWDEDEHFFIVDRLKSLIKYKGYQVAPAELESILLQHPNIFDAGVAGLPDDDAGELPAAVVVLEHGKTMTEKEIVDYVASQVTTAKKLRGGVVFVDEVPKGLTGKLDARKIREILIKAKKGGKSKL
# [9] = control 3'UTR Renilla luciferase suppression, dose response, counter-screen for Shn3 inhibitor project, cell-based, Clone20-Shn3RL, cherry-picked (AID 624133); assay type: functional
# [10] = inhibitors of SNCA 5'UTR-driven reporter translation, confirmation, H4 neuroglioma cells, luminescence (AID 1988); assay type: functional, cell-based
# [11] = Luminescence Cell-Based Dose Confirmation HTS to Identify Inhibitors of Platelet Dense Granule Release. [Related pubchem assays: 1663 (Primary HTS), 1678 (Summary of Project)]; assay type: functional
# [12] = Shn3 3'UTR reporter inhibitors, dose response, cell-based, Clone20 osteoblasts, firefly luciferase, cherry-picked (AID 624132); assay type: functional;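 further: firefly luciferase luminescence from reporter carrying the Shn3 3'UTR in osteoblasts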
# Caspase-6 = biological target: T6, Caspase-6 (Homo sapiens, UniProt P55212); test: human caspase-6 inhibitors, dose response, biochemical, VEID-R110 fluorescence, cherry-pick (AID 720632)
# T6 sequence (P55212 whole entry): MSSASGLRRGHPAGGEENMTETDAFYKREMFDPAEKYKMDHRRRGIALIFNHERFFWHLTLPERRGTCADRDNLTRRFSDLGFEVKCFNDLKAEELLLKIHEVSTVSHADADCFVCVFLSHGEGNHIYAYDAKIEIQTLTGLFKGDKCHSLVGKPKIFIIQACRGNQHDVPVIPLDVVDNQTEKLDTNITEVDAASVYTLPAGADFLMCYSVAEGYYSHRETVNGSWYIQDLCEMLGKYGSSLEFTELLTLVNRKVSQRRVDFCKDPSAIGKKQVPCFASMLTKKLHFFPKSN
# H9c2 = test: cells; assay type: functional, cell-based; conditions: Rattus norvegicus, H9c2, Myocardium;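 further: confirmatory concentration-response retest of ultra-high-throughput screening hits for modulation of myocardial damage; cell death induced by hydrogen peroxide oxidative stress; compound pretreatment for 60 min then peroxide exposure for 2 h; potency is for protecting the cells against peroxide damage rather than for killing them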
# Paired box protein Pax-8 = Paired box protein Pax-8 (Homo sapiens, UniProt Q06710); test: inhibitors of PAX8-driven TPO luciferase reporter, dose response, RMG-I cells, cherry-pick (AID 687027); assay type: functional, cell-based;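 further: luciferase reporter driven by Pax8 target thyroperoxidase promoter measured by SteadyGlo luminescence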
# Sequence of Paired box protein Pax-8 (Q06710 whole entry): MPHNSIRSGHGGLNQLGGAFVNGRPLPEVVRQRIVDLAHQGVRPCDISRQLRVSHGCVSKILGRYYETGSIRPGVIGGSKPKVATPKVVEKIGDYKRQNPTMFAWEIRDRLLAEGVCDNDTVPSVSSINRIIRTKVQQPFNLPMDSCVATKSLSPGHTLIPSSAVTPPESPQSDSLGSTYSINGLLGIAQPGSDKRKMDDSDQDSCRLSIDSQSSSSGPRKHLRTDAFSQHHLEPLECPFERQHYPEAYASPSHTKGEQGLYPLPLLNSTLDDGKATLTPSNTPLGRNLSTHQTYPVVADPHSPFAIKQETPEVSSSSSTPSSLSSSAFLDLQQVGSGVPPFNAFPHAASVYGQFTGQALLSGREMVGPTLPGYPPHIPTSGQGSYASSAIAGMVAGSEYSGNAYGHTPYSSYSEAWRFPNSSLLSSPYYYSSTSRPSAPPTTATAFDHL
# T1 sequence (P65502 whole entry): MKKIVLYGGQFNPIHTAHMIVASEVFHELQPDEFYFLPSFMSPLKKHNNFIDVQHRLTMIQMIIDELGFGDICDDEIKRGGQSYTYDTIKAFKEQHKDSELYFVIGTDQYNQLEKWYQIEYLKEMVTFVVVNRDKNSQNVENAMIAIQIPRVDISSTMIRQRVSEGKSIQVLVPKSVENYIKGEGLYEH
compound,measurement,setting,value
O=C(COC(=O)c1ccc(Oc2ccccc2)cc1)Nc1nnc(-c2ccccc2)o1,IC50,[1],9.58 µM (active)
same,IC50,[2],23.8 µM (active)
CCC(C)(C)n1nnnc1C(c1ccc2ncccc2c1)N1CCN(c2nc3ccccc3s2)CC1 (stereo not drawn),IC50,Aminopeptidase N,51.1 µM (active)
c1ccc(CCCCN2C(Nc3ccccc3)=NC[C@@H]2Cc2ccccc2)cc1,IC50,[3],12 µM (active)
CCc1cccc2c(/C=N/NC(=O)c3cccc(S(=O)(=O)Nc4ccccc4Cl)c3)c[nH]c12,IC50,[1],11.2 µM (active)
same,IC50,[2],31.2 µM (active)
COc1ccc2ccccc2c1/C=N/NC(=O)c1nnn(-c2nonc2N)c1C(C)C,IC50,[1],38 µM (active)
same,IC50,[2],78 µM (active)
CCOc1nc(N=C(N)N)nc2c(C)cccc12,AC50,Cytochrome P450 2C19,inconclusive
same,IC50,Aminopeptidase N,7.38 µM (active)
COc1ccc2c(c1)sc1nc(-c3ccccc3)cn12,IC50,Protein skinhead-1,> 100 µM (inactive)
same,AC50,[4],42.3 µM (active)
same,EC50,[5],681 nM (active)
same,EC50,[6],388 nM (active)
same,EC50,[7],2.23 µM (active)
same,EC50,[8],669 nM (active)
same,AC50,[9],13.2 µM (active)
same,EC50,[10],299 nM (active)
same,EC50,[11],4.62 µM (active)
same,AC50,[12],7.37 µM (active)
COc1ccc(C(C(=O)NC2CCCCC2)N(C(=O)c2ccco2)c2ccccc2C(C)=O)cc1OC (stereo not drawn),IC50,[3],2 µM (active)
Cn1/c(=N/CC(O)COc2ccccc2)sc2ccccc21 (stereo not drawn),IC50,[3],13.5 µM (active)
Cc1ccc(C)c(NC(=O)C(OC(=O)c2ccc(NC(=O)CC#N)cc2)c2ccccc2)c1 (stereo not drawn),IC50,[1],11.4 µM (active)
same,IC50,[2],42.7 µM (active)
C[n+]1ccccc1COc1ccc(C(C)(C)C)cc1,IC50,[3],13.8 µM (active)
C/C(=N\Nc1ccc(C(=O)O)cc1)c1ccc(Br)cc1,AC50,Caspase-6,7.07 µM (active)
CN(C)C(=O)c1ccc(-c2nnc(O)c3ccccc23)cc1,IC50,H9c2,> 79 µM (inactive)
COc1ccc(-c2cnc3c(NC=O)cc(-c4cccc(NS(C)(=O)=O)c4)cn23)cc1OC,AC50,Paired box protein Pax-8,5.09 µM (active)
same,IC50,H9c2,> 79 µM (inactive)
Cc1ccc(S(=O)(=O)N(NC2=NS(=O)(=O)c3ccccc32)C(=O)c2ccccc2)cc1,IC50,Aminopeptidase N,46.8 µM (active)
CC1CCCCN1CCNC(=O)CN1C(=O)CSc2ccc(S(=O)(=O)N3CCCCC3)cc21 (stereo not drawn),IC50,[3],12.9 µM (active)
CCc1cc(=O)oc2c(CN3CCN(C)CC3)c(O)c(Cl)cc12,IC50,Aminopeptidase N,35.9 µM (active)
CC(=O)c1cccc(-c2cnc3c(NC=O)cc(-c4cccc(C(=O)N(C)C)c4)cn23)c1,IC50,H9c2,> 79 µM (inactive)
